15 compounds from ChEMBL document CHEMBL4251652, “Chameleon-like behavior of indolylpiperidines in complex with cholinesterases targets: Potent butyrylcholinesterase inhibitors” (Eur J Med Chem, 2018) can be followed below.

Series [1] is described as follows: in vitro. The note with it: PAMPA.
Description: Permeability of the compound by PAMPA
Series [2] in a line: in vitro. To be noted: PAMPA. The source holds these as a separate data set.
Description: Permeability of the compound at 500 uM after 8 hrs by PAMPA
The target in series [3] is T1, Acetylcholinesterase (Homo sapiens, UniProt P22303). The series can be described thus: Inhibition of recombinant human AChE using acetylthiocholine iodide as substrate pretreated for 5 mins followed by substrate addition measured for 5 mins by Ellman's method. On the technique in general: Ellman's reagent forms a yellow product with free thiols.
T1 sequence (P22303 whole entry): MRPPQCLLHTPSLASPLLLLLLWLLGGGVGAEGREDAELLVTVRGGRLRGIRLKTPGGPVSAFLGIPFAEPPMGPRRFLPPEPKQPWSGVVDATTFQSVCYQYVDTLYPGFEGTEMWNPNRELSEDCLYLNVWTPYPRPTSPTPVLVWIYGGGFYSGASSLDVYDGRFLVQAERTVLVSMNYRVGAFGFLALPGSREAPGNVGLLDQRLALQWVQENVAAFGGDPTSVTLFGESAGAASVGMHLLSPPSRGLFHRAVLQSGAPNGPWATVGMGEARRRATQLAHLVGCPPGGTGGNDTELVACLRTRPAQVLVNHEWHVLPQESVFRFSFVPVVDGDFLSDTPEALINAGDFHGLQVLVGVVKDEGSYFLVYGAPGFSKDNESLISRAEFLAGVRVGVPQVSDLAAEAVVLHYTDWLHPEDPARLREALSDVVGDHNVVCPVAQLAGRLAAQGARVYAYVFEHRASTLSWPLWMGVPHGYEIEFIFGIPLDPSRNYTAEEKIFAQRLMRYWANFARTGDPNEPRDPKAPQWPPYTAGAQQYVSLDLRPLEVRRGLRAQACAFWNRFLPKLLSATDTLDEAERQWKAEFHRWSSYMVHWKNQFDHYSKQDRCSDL
A short description of series [4]: in vitro. The note with it: PAMPA. The source holds these as a separate data set. A general note: PAMPA measures passive passage across an artificial lipid membrane.
Description: Permeability of the compound after 2.5 hrs by PAMPA
Series [5] has as its target T2, Cholinesterase (Homo sapiens, UniProt P06276). Description: Inhibition of recombinant human serum BuChE using butyrylthiocholine iodide as substrate pretreated for 5 mins followed by substrate addition measured for 5 mins by Ellman's method.
Series [6] concerns Rattus norvegicus. The series can be described thus: In vivo inhibition of BuChE in Wistar rat at 80 mg/kg, ip measured after 60 mins by Ellman's method relative to control. The format is functional. The note with it: 1 h.
Another series concerns SH-SY5Y. Description: Cytotoxicity against human SH-SY5Y cells assessed as cell death up to […] after 24 hrs by LDH release assay. The format is cell-based. (LDH leaks from cells whose membrane has failed.)
Series [7] relates to Rattus norvegicus. The series can be described thus: In vivo inhibition of BuChE in Wistar rat administered ip measured after 60 mins by Ellman's method. Format: functional, organism-based.
Series [8] has as its target Acetylcholinesterase (Electrophorus electricus) (UniProt O42275). Description: Binding affinity to electric eel AChE at 20-fold excess by STD-NMR menthod.
Series [9] addresses Cholinesterase (Equus caballus) (UniProt P81908). The series can be described thus: Binding affinity to equine serum BuChE at 176 uM by trNOESY NMR method.
Series [10] deals with T1, Acetylcholinesterase. Description: Competitive inhibition of recombinant human AChE at 1 to 10 uM using varying levels of acetylthiocholine iodide as substrate pretreated for 5 mins followed by substrate addition measured for 5 mins by Lineweaver-Burk plot analysis.
Series [11] addresses Cholinesterase (Equus caballus) (UniProt P81908). Description: Binding affinity to equine serum BuChE at 20-fold excess by STD-NMR menthod.
For series [12], the target named is Acetylcholinesterase (Electrophorus electricus) (UniProt O42275). The series can be described thus: Binding affinity to electric eel AChE at 260 uM by trNOESY NMR method.
Sequence of Acetylcholinesterase (Electrophorus electricus) (O42275 24-633 limits assumed): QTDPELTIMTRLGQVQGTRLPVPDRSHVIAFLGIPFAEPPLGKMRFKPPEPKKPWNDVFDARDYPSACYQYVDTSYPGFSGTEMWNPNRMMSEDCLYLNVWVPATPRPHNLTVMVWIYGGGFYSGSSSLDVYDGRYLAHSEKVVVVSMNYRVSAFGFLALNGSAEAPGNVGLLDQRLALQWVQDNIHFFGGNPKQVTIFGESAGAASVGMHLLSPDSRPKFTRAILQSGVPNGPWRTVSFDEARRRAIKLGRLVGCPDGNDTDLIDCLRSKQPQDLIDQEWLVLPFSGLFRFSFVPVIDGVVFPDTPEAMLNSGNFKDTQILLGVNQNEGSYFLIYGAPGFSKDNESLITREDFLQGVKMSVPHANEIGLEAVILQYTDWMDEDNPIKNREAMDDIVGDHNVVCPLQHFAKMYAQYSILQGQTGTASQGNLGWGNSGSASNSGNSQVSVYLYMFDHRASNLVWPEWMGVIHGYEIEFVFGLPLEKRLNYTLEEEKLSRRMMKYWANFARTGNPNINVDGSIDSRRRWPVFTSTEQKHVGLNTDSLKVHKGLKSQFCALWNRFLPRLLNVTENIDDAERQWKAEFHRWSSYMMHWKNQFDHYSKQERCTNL
Series [13] has as its target T2, Cholinesterase. Description: Mixed-type inhibition of recombinant human serum BuChE at 0.5 to 2 nM using varying levels of butyrylthiocholine iodide as substrate pretreated for 5 mins followed by substrate addition measured for 5 mins by Lineweaver-Burk plot analysis.

SMILES strings stand for the structures. Active and inactive are the calls of the source. No cut-off for these calls is given here.

T2 sequence (P06276 whole entry): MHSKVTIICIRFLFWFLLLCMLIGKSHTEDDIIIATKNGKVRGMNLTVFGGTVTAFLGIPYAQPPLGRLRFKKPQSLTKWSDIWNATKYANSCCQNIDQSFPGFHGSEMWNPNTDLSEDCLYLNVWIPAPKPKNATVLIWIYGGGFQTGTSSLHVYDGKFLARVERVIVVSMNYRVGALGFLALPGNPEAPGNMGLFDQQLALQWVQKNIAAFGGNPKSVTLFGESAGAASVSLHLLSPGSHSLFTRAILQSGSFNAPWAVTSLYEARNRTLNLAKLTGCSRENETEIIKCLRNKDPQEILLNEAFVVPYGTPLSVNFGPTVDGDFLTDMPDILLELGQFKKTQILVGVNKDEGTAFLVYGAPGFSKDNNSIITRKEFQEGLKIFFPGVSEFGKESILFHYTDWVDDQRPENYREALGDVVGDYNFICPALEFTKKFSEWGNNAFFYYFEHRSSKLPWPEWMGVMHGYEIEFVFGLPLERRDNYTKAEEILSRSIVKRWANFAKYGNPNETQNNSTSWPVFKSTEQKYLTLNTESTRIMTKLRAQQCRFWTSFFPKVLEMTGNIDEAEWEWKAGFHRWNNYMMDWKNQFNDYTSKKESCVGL
Sequence of Cholinesterase (Equus caballus) (P81908 whole entry): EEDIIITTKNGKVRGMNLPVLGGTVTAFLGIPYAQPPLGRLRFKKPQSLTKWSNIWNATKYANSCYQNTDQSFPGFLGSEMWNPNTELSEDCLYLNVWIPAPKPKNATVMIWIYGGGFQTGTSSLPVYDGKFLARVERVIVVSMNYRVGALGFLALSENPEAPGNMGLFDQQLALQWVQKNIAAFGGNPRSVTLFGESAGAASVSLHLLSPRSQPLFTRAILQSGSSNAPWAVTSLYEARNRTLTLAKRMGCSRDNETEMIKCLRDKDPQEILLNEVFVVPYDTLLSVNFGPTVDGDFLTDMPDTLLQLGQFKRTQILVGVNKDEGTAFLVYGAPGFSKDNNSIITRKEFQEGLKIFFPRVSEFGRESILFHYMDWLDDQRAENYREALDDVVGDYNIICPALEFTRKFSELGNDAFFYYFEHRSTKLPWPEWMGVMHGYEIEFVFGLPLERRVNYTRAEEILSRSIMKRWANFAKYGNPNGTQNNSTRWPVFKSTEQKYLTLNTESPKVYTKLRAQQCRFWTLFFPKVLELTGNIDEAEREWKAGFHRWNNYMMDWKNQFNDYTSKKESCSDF

As a reminder, the Papp is the rate of passage across a membrane or cell layer, normalised by area and donor concentration. A higher Papp goes with fast passage. `NC(=O)N1c2ccccc2C=Cc2ccccc21` [CARBAMAZEPINE] returned a Papp in “in vitro [1]” of 11.3 ×10⁻⁶ cm/s. In the series “in vitro [2]”, this compound displayed a Papp at 8 h, 500 µM of 11.2 ×10⁻⁶ cm/s.
In general, IC50 refers to the concentration that inhibits the measured activity by half. For `Cn1cc(C(=O)NCCC2CCN(Cc3ccccc3)CC2)c2ccccc21`, the IC50 came out at 6110 nM at Acetylcholinesterase [3] and 670 nM at Cholinesterase [5]. In “in vitro [4]”, the Papp at 2.5 h amounted to 4.8 ×10⁻⁶ cm/s. In “in vitro [2]”, this compound gave a Papp at 8 h, 500 µM of 4.6 ×10⁻⁶ cm/s.
On to `Nc1nc2c(ncn2COCCO)c(=O)[nH]1` [ACYCLOVIR], for which the Papp at 8 h, 500 µM in “in vitro [2]” was determined as 0.1 ×10⁻⁶ cm/s.
Compound `CN(C)CCCN1c2ccccc2Sc2ccccc21` [PROMAZINE] showed a Papp at 2.5 h in the series “in vitro [4]” of 11.8 ×10⁻⁶ cm/s.
`O=c1ccc2ccccc2o1` [COUMARIN] gave a Papp in the series “in vitro [1]” of 22.1 ×10⁻⁶ cm/s. The Papp at 8 h, 500 µM in “in vitro [2]” was found to be 19.3 ×10⁻⁶ cm/s.
For `O=C(CCc1c[nH]c2ccccc12)NCCC1CCN(Cc2ccccc2)CC1`, the IC50 is 5950 nM at Acetylcholinesterase [3] and 0.89 nM at Cholinesterase [5]. This compound also came in with a Papp at 2.5 h in “in vitro [4]” of 2.2 ×10⁻⁶ cm/s. Also, the Papp at 8 h, 500 µM in “in vitro [2]” came to 0.7 ×10⁻⁶ cm/s.
In the series “in vitro [4]”, `CN1C(C(=O)Nc2ccccn2)=C(O)c2ccccc2S1(=O)=O` [PIROXICAM] gave a Papp at 2.5 h of 0.1 ×10⁻⁶ cm/s.
By inhibition in vivo is commonly meant the change of the read-out against control, counted positive when it falls. `O=C(Cc1c[nH]c2ccc(Br)cc12)NCCC1CCN(Cc2ccccc2)CC1`: the IC50 at Acetylcholinesterase [3] worked out at 1410 nM; on Cholinesterase [5], 0.68 nM. The compound further registered a Papp at 2.5 h in “in vitro [4]” of 5.8 ×10⁻⁶ cm/s. In “in vitro [2]”, this compound showed a Papp at 8 h, 500 µM of 0.5 ×10⁻⁶ cm/s. Moreover, the inhibition in vivo at 80 mg/kg in the series on Rattus norvegicus [6] is 15%. For the same compound, the Activity entry with SH-SY5Y is recorded as “Non-Toxic”. For the same compound, in the series on Rattus norvegicus [7], the inhibition result is “Dose-dependent effect”.
For the compound `O=C(Cc1c[nH]c2ccccc12)NCCC1CCN(Cc2ccccc2)CC1`, the IC50 on Acetylcholinesterase [3] stood at 3550 nM; at Cholinesterase [5], 0.87 nM. In addition, in the series “in vitro [4]”, the Papp at 2.5 h was determined as 2.4 ×10⁻⁶ cm/s. The outcome in series [8], in series [9], in [11] and in [12] was Active. In “in vitro [2]”, this compound gave a Papp at 8 h, 500 µM of 0.1 ×10⁻⁶ cm/s. Further, the inhibition result on Acetylcholinesterase [10] and at Cholinesterase [13] was “Active” throughout.
Consider `CNCCCN1c2ccccc2CCc2ccccc21` [DESIPRAMINE], for which, in “in vitro [4]”, the Papp at 2.5 h is 11.4 ×10⁻⁶ cm/s.
Turning to `Cn1cc(CC(=O)NCCC2CCN(Cc3ccccc3)CC2)c2ccccc21`, the IC50 was 1420 nM at Acetylcholinesterase [3] and 0.25 nM at Cholinesterase [5]. The compound also yielded a Papp at 2.5 h in “in vitro [4]” of 7.3 ×10⁻⁶ cm/s. In addition, in the series “in vitro [2]”, the Papp at 8 h, 500 µM is 5.5 ×10⁻⁶ cm/s.
Regarding `Cn1c(=O)c2c(ncn2C)n(C)c1=O` [CAFFEINE], in “in vitro [4]”, the Papp at 2.5 h was determined as 0.1 ×10⁻⁶ cm/s.
In the case of `CO/N=C(\C(=O)N[C@@H]1C(=O)N2C(C(=O)O)=C(CSc3nc(=O)c(=O)[nH]n3C)CS[C@H]12)c1csc(N)n1` [CEFTRIAXONE], the Papp at 8 h, 500 µM in the series “in vitro [2]” was determined as 0.1 ×10⁻⁶ cm/s.
Consider `Cc1[nH]c2ccccc2c1CC(=O)NCCC1CCN(Cc2ccccc2)CC1`, for which the IC50 came out at 7270 nM on Acetylcholinesterase [3] and 1.09 nM on Cholinesterase [5]. Also, in the series “in vitro [4]”, the Papp at 2.5 h turned out to be 2.3 ×10⁻⁶ cm/s. This compound came in with a Papp at 8 h, 500 µM in “in vitro [2]” of 0.7 ×10⁻⁶ cm/s.
`O=C(CCCc1c[nH]c2ccccc12)NCCC1CCN(Cc2ccccc2)CC1`: the concentration for half-maximal inhibition (IC50) is 1260 nM at Acetylcholinesterase [3] and 12 nM at Cholinesterase [5]. In “in vitro [4]”, this compound returned a Papp at 2.5 h of 3.9 ×10⁻⁶ cm/s. Also, in “in vitro [2]”, the Papp at 8 h, 500 µM turned out to be 0.1 ×10⁻⁶ cm/s.
